Results as given in patent US12365680B2, “Polymorphs of the hydrochloride salt of linaprazan glurate” (Cinclus Pharma Holding AB (Publ), priority 2021, dated 2025).
Entries after “also recorded” stand apart in the source; their conditions may differ. Structures can show the parent of a compound that is named as a salt.

Experiments:
[1] = Pharmacokinetics of linaprazan glurate after absorption; conditions: in vivo
[2] = Dynamic vapour sorption (DVS) hygroscopicity; format: physicochemical
Procedure: Analyses were performed on an SMS DVS-1 instrument. A few mg of the substance was added into an Al pan and exposed to stepwise RH changes during two identical consecutive cycles according to 0-10-20-30-40-50-60-70-80-90-80-70-60-50-40-30-20-10-0% RH using open loop mode. The experiments were performed using a gas flow rate of 200 mL/min and at 25° C. The dm/dt criteria applied was 0.001 weight-%/min during a 5-minutes window, with a maximum allowed time of 360 minutes and a minimum allowed time of 10 minutes for all steps.
The hygroscopicity of Form 1 (obtained by crystallisation from DMF using EtOAc as the anti-solvent) and Form 2 (obtained from a slurry in MeOH) was investigated using DVS at 25° C. […] With a water uptake of 0.2% at 90% RH, Form 1 can be classified as non-hygroscopic.
The water uptake is rapid when the relative humidity is increased, and the water loss is equally rapid when the relative humidity is decreased. The sorption behaviour is typical for a channel hydrate, where the crystal structure adapts to accommodate different amounts of water depending on the surrounding humidity. The water uptake of 4.7% at 90% RH corresponds to 1.3 water molecules per linaprazan glurate HCl unit.

[3] = Phase I and II studies; cited from earlier work
intragastric acidity = assay: Clinical Phase I study of linaprazan glurate, intragastric pH; format: in vivo; conditions: human, plasma, oral; after 22 hours; to maintain intra-gastric pH above 4 for 24 hours; read-out: minimal plasma concentration (Cmin) of linaprazan required
[4] = Solubility of free base and HCl salt in media simulating gastric fluid (FaSSGF, FeDSGA); format: physicochemical; conditions: after 1 hour
Procedure: For solubility studies, HPLC was performed using an Agilent 1100 series Liquid Chromatography system, equipped with DAD spectrometer. Analyses were performed using a Waters X Bridge BEH C18 column (4.6×100 mm, 2.5 μm) at 30° C. Mobile phase: A=0.1% formic acid in water, B=0.1% formic acid in acetonitrile. Flow rate 0.8 mL/min. Mobile phase program:
The solubility of the crystalline free base (Form A) and the crystalline HCl salt of linaprazan glurate (mixture of Forms 1 and 2) was studied in Fasted State Simulated Gastric Fluid (FaSSGF, Biorelevant, batch FFF-0119-B; pH 1.6) and Fed State Gastric Acid (FeDSGA, Biorelevant, batch FEDGAS-120-A; pH 5.0).
Saturated solutions were prepared in 4 mL vials by adding a fixed weight of the crystalline base or the crystalline HCl salt to 2 mL of each of the different buffer solutions. Vials were sonicated for 10 minutes and then stirred with a magnetic stirrer on a water bath (37° C.) for 24 hours. Samples were taken after 1, 4 and 24 hours, in replicates, and analysed by HPLC-UV. Concentrations were calculated from a calibration curve, constructed using 8 calibration standards (serial dilutions of stock solutions of the free base and the HCl salt of linaprazan glurate).

[5] = cited from earlier work

Structure (SMILES): Cc1cccc(C)c1CNc1cc(C(=O)NCCOC(=O)CCCC(=O)O)cn2c(C)c(C)nc12 [linaprazan glurate, 5-{2-[({8-[(2,6-dimethylbenzyl)amino]-2,3-dimethylimidazo[1,2-a]pyridine-6-yl}carbonyl)-amino]ethoxy}-5-oxopentanoic acid]
- half-life in the body compared to linaprazan [1]: longer half-life
- metabolism following absorption into the blood stream [1]: quickly metabolized into linaprazan
- plasma concentration [1]: only very low and difficult to determine

Structure (SMILES): Cc1cccc(C)c1CNc1cc(C(=O)NCCOC(=O)CCCC(=O)O)cn2c(C)c(C)nc12 [Form 2]
- hygroscopicity (in words) ([2]; DVS at 25° C.): significant uptake of water at elevated humidities
- water uptake ([2]; DVS at 25° C., 90% RH): 4.7%
- water molecules per linaprazan glurate HCl unit ([2]; corresponds to water uptake at 90% RH): 1.3

Structure (SMILES): Cc1cccc(C)c1CNc1cc(C(=O)NCCO)cn2c(C)c(C)nc12 [linaprazan]
- elimination [3]: quickly eliminated from the body
- onset of action and effect [3]: fast onset of action and full effect at first dose
- tolerability [3]: well tolerated
- concentration at 22 h (intragastric acidity): ≥ 240 nM

Structure (SMILES): Cc1cccc(C)c1CNc1cc(C(=O)NCCOC(=O)CCCC(=O)O)cn2c(C)c(C)nc12 [free base]
- solubility of the free base relative to the HCl salt ([4]; FaSSGF pH 1.6, 37° C.): about 1.4 times
- solubility at pH 1 ([5]; pH 1): only slightly soluble
- solubility in water at pH 6.8 ([5]; pH 6.8): practically insoluble

Structure (SMILES): Cc1cccc(C)c1CNc1cc(C(=O)NCCOC(=O)CCCC(=O)O)cn2c(C)c(C)nc12 [Form 1]
- hygroscopicity (in words) ([2]; DVS at 25° C.): non-hygroscopic; also recorded: very low hygroscopicity

Structure (SMILES): Cc1cccc(C)c1CNc1cc(C(=O)NCCOC(=O)CCCC(=O)O)cn2c(C)c(C)nc12 [HCl salt]
- solubility of the HCl salt relative to the free base ([4]; FeDSGA pH 5.0, 37° C.): more than 6.5 times
